Patent US20090142395A1, “DEFERASIROX PHARMACEUTICAL COMPOSITIONS” (priority 2007, published 2009)

Test: Flow properties of co-milled blends, assessed visually
Type: physicochemical
Conditions: visual score between 1 and 6, where 6 is a free-flowing powder
Protocol: Flow properties were assessed visually, and given a score between 1 and 6, where 6 is a free-flowing powder.

With `O=C(O)c1ccc(-n2nc(-c3ccccc3O)nc2-c2ccccc2O)cc1` [Deferasirox raw material, 4-[3,5-bis(2-hydroxyphenyl)-[1,2,4]triazol-1-yl]benzoic acid] the Flow score was 1.
